From PMC11277056, “Effects of SRI-32743, a Novel Quinazoline Structure-Based Compound, on HIV-1 Tat and Cocaine Interaction with Norepinephrine Transporter” (International Journal of Molecular Sciences, 2024)

Tests used:
Assay type in all cases: cell-based
[1] = biological target: T1, norepinephrine transporter (hNET) (Homo sapiens, UniProt P23975); test: [3H]MPP+ preloading and efflux in CHO cells expressing WT hNET
T1 construct: gene SLC6A2; WT hNET

[2] = biological target: T1, norepinephrine transporter (hNET); test: [3H]Nisoxetine competition binding in intact CHO-K1 cells; also [3H]DA uptake inhibition (IC50 […]) and slowed [3H]Nisoxetine dissociation
[3] = biological target: T2, dopamine transporter (hDAT) (Homo sapiens, UniProt Q01959); test: [3H]DA uptake inhibition in CHO-K1 cells expressing WT hDAT
T2 construct: gene SLC6A3; WT hDAT
T2 sequence (Q01959 whole entry): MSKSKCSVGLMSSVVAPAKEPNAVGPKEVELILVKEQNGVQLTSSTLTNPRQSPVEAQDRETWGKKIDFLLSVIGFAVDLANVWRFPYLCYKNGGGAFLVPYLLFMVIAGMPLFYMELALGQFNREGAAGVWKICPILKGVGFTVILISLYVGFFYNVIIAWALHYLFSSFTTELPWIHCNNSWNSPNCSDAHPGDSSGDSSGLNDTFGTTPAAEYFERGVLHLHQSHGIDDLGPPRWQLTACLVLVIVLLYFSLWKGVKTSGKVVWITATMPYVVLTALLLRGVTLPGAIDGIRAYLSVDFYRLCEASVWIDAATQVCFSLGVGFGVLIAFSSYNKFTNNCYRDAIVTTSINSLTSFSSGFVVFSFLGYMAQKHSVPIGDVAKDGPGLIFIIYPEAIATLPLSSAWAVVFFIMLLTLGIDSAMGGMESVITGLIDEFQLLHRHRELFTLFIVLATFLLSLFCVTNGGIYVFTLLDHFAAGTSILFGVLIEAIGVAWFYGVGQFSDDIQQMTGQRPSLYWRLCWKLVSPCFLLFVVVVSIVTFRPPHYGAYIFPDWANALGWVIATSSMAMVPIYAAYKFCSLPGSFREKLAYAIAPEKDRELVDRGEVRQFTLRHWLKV

T1 sequence (P23975 whole entry): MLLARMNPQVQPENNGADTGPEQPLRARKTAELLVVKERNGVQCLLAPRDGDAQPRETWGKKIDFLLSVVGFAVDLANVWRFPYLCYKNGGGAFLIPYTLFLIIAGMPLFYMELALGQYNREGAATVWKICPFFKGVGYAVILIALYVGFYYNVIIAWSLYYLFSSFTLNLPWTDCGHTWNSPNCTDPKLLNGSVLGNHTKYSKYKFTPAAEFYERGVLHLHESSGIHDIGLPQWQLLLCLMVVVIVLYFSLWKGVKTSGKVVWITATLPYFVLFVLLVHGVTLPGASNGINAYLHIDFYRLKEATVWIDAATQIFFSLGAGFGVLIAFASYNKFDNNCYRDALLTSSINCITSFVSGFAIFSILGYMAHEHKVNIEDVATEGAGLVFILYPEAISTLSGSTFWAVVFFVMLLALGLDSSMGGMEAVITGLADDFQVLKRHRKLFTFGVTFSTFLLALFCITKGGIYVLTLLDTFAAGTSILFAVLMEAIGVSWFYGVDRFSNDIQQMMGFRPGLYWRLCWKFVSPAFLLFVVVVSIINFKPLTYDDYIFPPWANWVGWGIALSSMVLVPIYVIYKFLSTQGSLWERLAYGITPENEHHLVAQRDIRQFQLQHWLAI

For `C[n+]1ccc(-c2ccccc2)cc1` [MPP+, N-methyl-4-phenylpyridinium], the “[3H]MPP+ preloading and efflux in CHO cells expressing WT hNET” value [1] was “decreased both basal [^3H]DA and [^3H]MPP^+ efflux via WT hNET compared with the control”.

Molecule SRI-32743 has an IC50 [2] of 26.4 ± 5.17 µM and an IC50 [3] of 8.16 ± 1.16 µM.
